Source: US4853403A, “3-phenylthiomethylstyrene derivative, process for preparing the same, and antiallergic agent and tyrosinekinase inhibiting agent containing the same” (Kanegafuchi Kagaku Kogyo Kabushiki Kaisha, priority 1985, dated 1989)

Assays:
[1] = tested on: SRS-A biosynthesis or release; experiment: SRS-A biosynthesis or release inhibitory activity (ovalbumin-challenged sensitized guinea pig lung fragments, bioassay on guinea pig ileum); format: cell-based, guinea pig (male Hartley); details: Cavia porcellus, read-out: Inhibition rate (SRS-A biosynthesis or release)
Description: [I] SRS-A biosynthesis or release inhibitory activity
SRS-A biosynthesis or release inhibitory activity was examined according to Koda et al. [Nippon yakurigakkaishi, 66, 194(1970)] and Kono-Watanabe et al. [J. Immunology, 125, 946(1980)].
Male Hartley guinea pigs weighing 350 to 450 g were sensitized by injecting once each 1 ml of an ovalbumin (100 mg/ml) into gluteus and peritoneal cavity. Four weeks after the injection, the animals were killed and then immediately the lung was perfused with cooled Tyrode's solution to remove blood. The lung was chopped into about 2 mm fragments and 500 mg of the fragments were suspended in 4.84 ml of Tyrode's solution, to which 0.01 ml of the test compound dissolved in dimethylsulfoxide (DMSO) was added. After incubation at 37° C. for 10 minutes, 0.15 ml of an ovalbumin (10 mg/ml) was added, followed by incubation at 37° C. for 20 minutes. In control, DMSO was added and the reaction was conducted in the same manner. The reaction mixture was filtered with gauze.
An amount of SRS-A in the filtrate was bioassayed using guinea pig ileum; i.e. the ileum (length: 2 to 3 cm) was suspended in Magnus tube containing aerated Tyrode's solution at 31° C. and, after the plateau of contraction was obtained, an amount of SRS-A in the above filtrate was bioassayed in the presence of 1 μM of atropine and 1 μM of pyrilamine. Inhibition rate (%) was calculated from a contraction in control as 100.

[2] = tested on: homologous passive cutaneous anaphylaxis (PCA); experiment: Inhibitory activity against homologous passive cutaneous anaphylaxis (PCA) in rats; format: in vivo, rat (male Wistar); details: 100 mg/kg, oral, 1 hour before the antigen
Description: [II]Inhibitory activity against homologous passive cutaneous anaphylaxis (PCA) in rats
Antiserum was prepared according to I. Mota [Immunology, 7, 681(1964)] and the PCA reaction was conducted according to Maruyama et al. [Nippon yakurigakkaishi, 74, 179(1978)].
(1) Preparation of antiserum
An ovalbumin solution (2 mg/ml) was injected intramuscularly into both thighs of male Wistar rats weighing 200 to 260 g in a volume of 0.5 ml/100 g body weight, and pertussis vaccine (Bordetella pertussis, 2×10^10 /ml, Chibaken Kessei Kenkyujo) was intraperitoneally administered at 1 ml/rat. Twelve days later, blood was taken from posterior aorta under ether anesthesia and antiserum was stored at -80° C.
Group of 4 male Wistar rats weighing 180 to 210 g were employed. Back of the animals was shaved and each 0.05 ml of antiserum (1:32 dilution) was injected intradermally at four sites on the back. After 48 hours, 1 ml of a mixture of ovalbumin (1 mg/ml) and Evans blue (5 mg/ml) was injected intravenously into the tail. 30 Minutes later, the animals were killed under ether anesthesia. The blue-dyed area (mm^2) formed was measured and an inhibition rate(%) was calculated as compared with control.
Test compound suspended in a 2.5% acacia containing 0.2% Tween 80 was administered orally in a volume of 0.5 ml/100 g body weight 1 hour before the antigen. Tranilast was administered orally 30 minutes before the antigen.

[3] = tested on: antigen-induced anaphylactic shock death; experiment: Protective effect against anaphylactic shock in actively sensitized guinea pigs; format: in vivo, guinea pig (male); details: Cavia porcellus; 100 mg/kg, oral, 30 minutes before antigen inhalation; survival 90 minutes or more; read-out: Protecting Effect (Number of test animal survivied/Number of test animal) (converted)
Description: [III] Protective effect against anaphylactic shock in actively sensitized guinea pigs
Antigen-induced anaphylactic shock death was observed according to John P. Devlin [Pulmonary and Antiallergic Drugs, John Wiley & Sons, 155 (1985)].
Each 100 mg/kg of ovalbumin dissolved in physiological saline was injected into peritoneal cavity and into gluteus of male guinea pigs weighing 250 to 350 g. 3 Days later, the animals were further injected intraperitoneally with ovalbumin (100 mg/kg). Those animals were employed for testing 3 to 4 weeks after first sensitization. Actively sensitized guinea pigs were pretreated subcutaneously with pyrilamine (1 mg/kg, 30 min.) to suppress histamine-dependent response and with propanolol ([…], 10 min.) to enhance the response induced by other than histamine before the antigen.
The animal was placed in a desiccator with a capacity of about 5 l and 0.5% aqueous solution of ovalbumin was inhaled with ultrasonic type nebulizer for five minutes. Anaphylactic shock death was observed and the animals survived for 90 minutes or more after antigen were estimated to be protected. The compounds of the present invention and antiasmatic agent were administered orally 30 minutes before the antigen inhalation. The control received vehicle alone similarly.

[4] = target: T1, epidermal growth factor acceptor-tyrosinekinase complex (Homo sapiens, UniProt P00533); experiment: Tyrosinekinase inhibitory activity (A-431 membrane specimen, EGF-stimulated, [γ-32P]ATP); format: biochemical, human (A-431 cell line derived from human cancerous cell); details: read-out: Inhibition rate (tyrosinekinase)
T1 construct: endogenous in cells; host or cells: A-431 (membrane specimen, not solubilized)
Description: Tyrosinekinase inhibitory activity of the compound of the present invention was measured by employing a method for measuring tyrosinekinase activity by G. Carpentor or by S. Cohen et al. [J. Biol. Chem., 254, 4884 (1979); J. Biol. Chem., 257, 1523 (1982)].
Cell line A-431 derived from human cancerous cell was cultured at 37° C. under the condition of 5% CO2 in Dulbecco's modified Eagle medium (made by DAINIPPON PHARMACEUTICAL CO., LTD.) containing 10% fetal bovine serum, 50 μg/ml of streptomycin, 50 IU/ml of penicillin G and 50 μg/ml of canamycin. The obtained cells were treated according to the above Cohen or Graham et al. to give membrane specimen containing epidermal growth factor acceptor-tyrosinekinase complex (hereinafter referred to as "membrane specimen"). The membrane specimen was employed in the following measurement without solubilization.
Sample dissolved in dimethylsulfoxide was added to a mixture of 20 mM of N-2-hydroxyethylpyperadino-N'-2-ethanesulfonate buffer (pH 7.4), 1 mM of MnCl2, 7.5 μg of bovine serum albumin and the membrane specimen (10 μg as protein). After incubation at 0° C. for 5 minutes, 100 ng of epidermal growth factor (hereinafter referred to as "EGF" was added and the mixture was further incubated at 0° C. for 15 minutes. [γ-^32 P]ATP (3000 Ci/mmol, 0.1 μCi) was added to make final volume of 70 μl. After incubation at 0° C. for 15 minutes, 50 μl of the reaction solution was soaked into Wattman 3 MM filter paper and immediately the reaction was stopped by 10% trichloroacetic acid-10 mM sodium pyrophosphate aqueous solution. The filter paper was sufficiently washed with the same solution and then washed with ethanol and dried. Radioactivity present in the filter paper was measured by liquid scintillation counter (A). Similarly, radioactivity was measured in case of the reaction without EGF (B), the reaction without the sample (C), and the reaction without both EGF and the sample (D) as a control.
Tyrosinekinase inhibition rate (%) was calculated by the following equation. [formula]

T1 sequence (P00533 25-1210): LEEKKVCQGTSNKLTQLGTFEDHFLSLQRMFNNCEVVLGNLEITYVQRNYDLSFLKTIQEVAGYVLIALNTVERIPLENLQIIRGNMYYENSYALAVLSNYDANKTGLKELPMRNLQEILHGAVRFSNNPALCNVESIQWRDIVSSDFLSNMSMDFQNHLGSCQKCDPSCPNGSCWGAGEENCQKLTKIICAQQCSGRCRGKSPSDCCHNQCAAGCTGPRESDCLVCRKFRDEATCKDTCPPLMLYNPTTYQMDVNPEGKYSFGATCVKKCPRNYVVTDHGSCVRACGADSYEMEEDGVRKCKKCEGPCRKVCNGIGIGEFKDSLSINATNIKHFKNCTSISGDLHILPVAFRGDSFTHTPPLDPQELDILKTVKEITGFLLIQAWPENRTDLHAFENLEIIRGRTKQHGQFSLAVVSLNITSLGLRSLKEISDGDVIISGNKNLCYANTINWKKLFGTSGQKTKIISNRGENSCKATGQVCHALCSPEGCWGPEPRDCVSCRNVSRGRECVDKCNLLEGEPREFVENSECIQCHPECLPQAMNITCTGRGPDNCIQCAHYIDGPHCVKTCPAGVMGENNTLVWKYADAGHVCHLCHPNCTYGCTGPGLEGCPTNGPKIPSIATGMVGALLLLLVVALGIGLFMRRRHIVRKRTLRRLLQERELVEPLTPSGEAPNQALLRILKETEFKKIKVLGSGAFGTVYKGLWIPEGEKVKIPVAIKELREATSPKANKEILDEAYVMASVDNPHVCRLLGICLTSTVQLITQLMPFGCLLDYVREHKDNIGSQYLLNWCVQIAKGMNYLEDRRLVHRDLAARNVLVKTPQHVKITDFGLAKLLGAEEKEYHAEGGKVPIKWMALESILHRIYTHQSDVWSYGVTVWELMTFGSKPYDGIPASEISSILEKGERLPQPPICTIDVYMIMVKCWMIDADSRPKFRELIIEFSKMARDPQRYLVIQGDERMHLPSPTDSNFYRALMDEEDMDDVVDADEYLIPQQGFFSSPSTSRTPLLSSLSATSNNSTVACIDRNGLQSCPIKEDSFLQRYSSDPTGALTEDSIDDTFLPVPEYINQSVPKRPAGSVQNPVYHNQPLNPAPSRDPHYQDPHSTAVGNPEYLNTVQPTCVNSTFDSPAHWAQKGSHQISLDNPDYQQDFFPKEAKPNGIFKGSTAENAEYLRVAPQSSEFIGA
T1 sequence (P01132 977-1029 partner limits assumed): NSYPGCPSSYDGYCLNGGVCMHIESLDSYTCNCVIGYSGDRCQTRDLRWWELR

In the case of `CCOC(=O)C(=Cc1cc(CSc2ccccc2)c(O)c(OCC)c1)S(C)(=O)=O` [XXII], the inhibition at 100 µM [1] is reported as 27%, the “Inhibition rate (PCA reaction, blue-dyed area)” value [2] is reported as 26% and the responders at 100 mg/kg [3] is reported as 20%. The inhibition at 10 µM [4] was 64% and the inhibition at 100 µM [4] was 80%.
For `CCOc1cc(C=C2CCOC2=O)cc(CSc2ccccc2)c1O` [XXIV], the inhibition at 100 µM [1] was 28%, the “Inhibition rate (PCA reaction, blue-dyed area)” value [2] was 26% and the responders at 100 mg/kg [3] was 20%. For the same compound, the inhibition at 10 µM [4] was 33% and the inhibition at 100 µM [4] was 50%.
